The results in this text go back to patent publication US10219516B2, “Molecules having pesticidal utility, and intermediates, compositions, and processes, related thereto” (priority 2015, dated 2019).

The structures appear in SMILES notation. Read-outs that look alike come from different tables or passages of the source.

Format in all cases: in vivo
In test [1] the test system is Beet Armyworm (Spodoptera exigua, LAPHEG). As to the kind of experiment: Bioassay on Beet Armyworm (BAW), 128-well diet tray assay. A digest of the protocol: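 Percent mortality, averaged across eight replicate wells, was scored after five to seven days at 25° C. under a 14:10 light-dark cycle. Each well's diet carried 50 μg/cm^2 of the dried test molecule and held one to five second instar larvae.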

Test [2] deals with Cabbage Looper (Trichoplusia ni, TRIPNI). Kind of test: Bioassay on Cabbage Looper (CL), 128-well diet tray assay. As to conditions: Trichoplusia ni. The method in brief:
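Using eight wells per molecule, artificial diet was dosed at 50 μg/cm^2 with compound in 90:10 acetone-water and dried before one to five second-instar larvae were added per well. Covered vented trays were kept at 25° C. with 14:10 light-dark for five to seven days, then per-well percent mortality was recorded and averaged.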

In test [3] the test system is Yellow Fever Mosquito (Aedes aegypti, AEDSAE). As to the kind of experiment: Bioassay on Yellow Fever Mosquito (YFM), 96-well plate larval assay. Conditions: for YFM (Biological Results, rating): Species YFM (Yellow Fever Mosquito); for YFM rating: Yellow Fever Mosquito, 96-well plate larval assay. The method in brief: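 Each well was scored for mortality after 3 days at room temperature under a non-evaporative lid. Test molecules came from DMSO masters (4000 ppm stock) diluted with water/acetone 90:10 and dispensed into six replicate plates, which were then infested with roughly 1-day-old larvae in liver-powder water.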

The mark [4] stands for this setting: Species BAW (Beet Armyworm), read-out: BAW (Biological Results, rating).
Setting [5] is: Species CL (Cabbage Looper), read-out: CL (Biological Results, rating).
Where [6] appears, read: Beet Armyworm, 128-well diet tray assay, read-out: BAW rating.
Where [7] appears, read: Cabbage Looper, 128-well diet tray assay, read-out: CL rating.

With `O=C(Nc1ccc(F)cc1F)c1cc(NC(=O)[C@@H]2[C@@H](c3cc(Cl)c(Cl)c(Cl)c3)C2(Cl)Cl)ccc1Cl` [F282, 2-Chloro-5-((1S,3S)-2,2-dichloro-3-(3,4,5-trichlorophenyl)cyclopropane-1-carboxamido)-N-(2,4-difluorophenyl)benzamide], the pest or weed control at 50 µg/cm2 in test [1] (setting [4]) and in test [2] (setting [5]) was 50 to 100% throughout. For the same molecule, the “YFM (Biological Results, rating)” value in test [3] is “A (80-100)”.
Turning to `O=C(Nc1cccc(F)n1)c1cc(NC(=O)[C@H]2[C@H](c3cc(Cl)cc(Cl)c3)C2(Cl)Cl)ccc1Cl` (relative stereo) [F240, trans-2-Chloro-5-(2,2-dichloro-3-(3,5-dichlorophenyl)cyclopropane-1-carboxamido)-N-(6-fluoropyridin-2-yl)benzamide], the pest or weed control at 50 µg/cm2 in test [1] (setting [4]) and in test [2] (setting [5]) was 50 to 100% each time. Moreover, the “YFM (Biological Results, rating)” value in test [3] was “A (80-100)”.
In the case of `C=Cc1ccc([C@H]2[C@H](C(=O)Nc3ccc(Cl)c(C(=O)Nc4ccc(F)cc4F)c3)C2(Cl)Cl)cc1F` (relative stereo) [F389, 2-Chloro-5-(trans-2,2-dichloro-3-(3-fluoro-4-vinylphenyl)cyclopropane-1-carboxamido)-N-(2,4-difluorophenyl)benzamide], the pest or weed control at 50 µg/cm2 in test [1] (setting [6]) and in test [2] (setting [7]) was 50 to 100% throughout. Besides, the YFM rating entry in test [3] was “A (80-100)”.
For `Nc1cccc(NC(=O)c2cc(NC(=O)[C@H]3[C@H](c4cc(Cl)cc(Cl)c4)C3(Cl)Cl)ccc2Cl)c1F` [F426, N-(3-Amino-2-fluorophenyl)-2-chloro-5-((1R,3R)-2,2-dichloro-3-(3,5-dichlorophenyl)cyclopropane-1-carboxamido)benzamide], the pest or weed control at 50 µg/cm2 in test [1] (setting [6]) and in test [2] (setting [7]) was 50 to 100% in each case. The YFM rating entry in test [3] is on record as “A (80-100)”.
As for `N#Cc1cc(Cl)cc(C2C(C(=O)Nc3ccc(Cl)c(C(=O)Nc4ccc(F)cc4F)c3)C2(Cl)Cl)c1` (stereo not drawn) [F188, 2-Chloro-5-(trans)-2,2-dichloro-3-(3-chloro-5-cyanophenyl)cyclopropane-1-carboxamido)-N-(2,4-difluorophenyl)benzamide], the pest or weed control at 50 µg/cm2 in test [1] (setting [4]) and in test [2] (setting [5]) was 50 to 100% throughout. Besides, the “YFM (Biological Results, rating)” value in test [3] is “B (More than 0-Less than 80)”.
Regarding `O=C(Nc1ccc(F)cc1F)c1cc(NC(=O)C2C(c3ccc(Cl)c(F)c3)C2(Cl)Cl)ccc1Cl` (stereo not drawn) [PF36, 2-Chloro-5-(trans)-2,2-dichloro-3-(4-chloro-3-fluorophenyl)cyclopropane-1-carboxamido)-N-(2,4-difluorophenyl)benzamide], the pest or weed control at 50 µg/cm2 in test [1] (setting [6]) and in test [2] (setting [7]) was 50 to 100% throughout. For the same molecule, in test [3], the YFM rating entry is “A (80-100)”.
Consider `Cc1ccc(NC(=O)c2cc(NC(=O)[C@H]3[C@H](c4cc(Cl)cc(Cl)c4)C3(Cl)Cl)ccc2Cl)cc1N` (relative stereo) [F205, trans-N-(3-Amino-4-methylphenyl)-2-chloro-5-(2,2-dichloro-3-(3,5-dichlorophenyl)cyclopropane-1-carboxamido)benzamide], for which the pest or weed control at 50 µg/cm2 in test [1] (setting [4]) and in test [2] (setting [5]) was 50 to 100% in each case. The “YFM (Biological Results, rating)” value in test [3] is given as “B (More than 0-Less than 80)”.
As to `O=C(Nc1nc(-c2cccs2)cs1)c1cc(NC(=O)[C@H]2[C@H](c3cc(Cl)cc(Cl)c3)C2(Cl)Cl)ccc1Cl` (relative stereo) [PF135, trans-2-Chloro-5-(2,2-dichloro-3-(3,5-dichlorophenyl)cyclopropane-1-carboxamido)-N-(4-(thiophen-2-yl)thiazol-2-yl)benzamide], the pest or weed control at 50 µg/cm2 in test [1] (setting [6]) and in test [2] (setting [7]) was 50 to 100% throughout. Besides, the YFM rating result in test [3] is listed as “A (80-100)”.
On to `Cc1cc(/N=C/c2ccc(Cl)cc2)ccc1NC(=O)c1cc(NC(=O)C2C(c3cc(Cl)cc(Cl)c3)C2(Cl)Cl)ccc1Cl` (stereo not drawn) [F510], for which the pest or weed control at 50 µg/cm2 in test [1] (setting [6]) and in test [2] (setting [7]) was 50 to 100% in each case. Also, the YFM rating result in test [3] is on record as “A (80-100)”.
As for `Cc1cc(N)ccc1NC(=O)c1cc(NC(=O)[C@H]2[C@H](c3cc(Cl)cc(Br)c3)C2(Cl)Cl)ccc1Cl` (relative stereo) [F337, N-(4-Amino-2-methylphenyl)-5-(trans-3-(3-bromo-5-chlorophenyl)-2,2-dichlorocyclopropane-1-carboxamido)-2-chlorobenzamide], the pest or weed control at 50 µg/cm2 in test [1] (setting [4]) and in test [2] (setting [5]) was 50 to 100% throughout. Moreover, the “YFM (Biological Results, rating)” value in test [3] is “A (80-100)”.
On to `N#Cc1ccccc1NC(=O)c1cc(NC(=O)[C@H]2[C@H](c3cc(Cl)cc(Cl)c3)C2(Cl)Cl)ccc1Cl` (relative stereo) [PF72, trans-2-Chloro-N-(2-cyanophenyl)-5-(2,2-dichloro-3-(3,5-dichlorophenyl)cyclopropane-1-carboxamido)benzamide], for which the pest or weed control at 50 µg/cm2 in test [1] (setting [6]) and in test [2] (setting [7]) was 50 to 100% throughout. Also, the YFM rating result in test [3] was “A (80-100)”.
Regarding `COc1cc(NC(=O)c2cc(NC(=O)[C@H]3[C@H](c4cc(Cl)cc(Cl)c4)C3(Cl)Cl)ccc2Cl)ccn1` (relative stereo) [F544, 2-Chloro-5-(trans-2,2-dichloro-3-(3,5-dichlorophenyl)cyclopropane-1-carboxamido)-N-(2-methoxypyridin-4-yl)benzamide], the pest or weed control at 50 µg/cm2 in test [1] (setting [6]) and in test [2] (setting [7]) was 50 to 100% each time. For the same molecule, the YFM rating result in test [3] is reported as “A (80-100)”.
With `O=C(Nc1cc(F)c2[nH]ccc2c1)c1cc(NC(=O)[C@H]2[C@H](c3cc(Cl)cc(Cl)c3)C2(Cl)Cl)ccc1Cl` (relative stereo) [F462, 2-Chloro-5-(trans)-(2,2-dichloro-3-(3,5-dichlorophenyl)cyclopropane-1-carboxamido)-N-(7-fluoro-1H-indol-5-yl)benzamide], the pest or weed control at 50 µg/cm2 in test [1] (setting [6]) and in test [2] (setting [7]) was 50 to 100% in each case. Moreover, the YFM rating result in test [3] is listed as “A (80-100)”.
On to `CC1(c2cc(Cl)cc(Cl)c2)C(C(=O)Nc2ccc(Cl)c(C(=O)Nc3ccc(F)cc3F)c2)C1(Cl)Cl` (stereo not drawn) [F252, 2-Chloro-5-trans-(2,2-dichloro-3-(3,5-dichlorophenyl)-3-methylcyclopropane-1-carboxamido)-N-(2,4-difluorophenyl)benzamide], for which the pest or weed control at 50 µg/cm2 in test [1] (setting [4]) and in test [2] (setting [5]) was 50 to 100% in each case. Further, in test [3], the “YFM (Biological Results, rating)” value is recorded as “A (80-100)”.
Take `C=Cc1ccc(NC(=O)[C@H]2[C@H](c3cc(Cl)cc(Cl)c3)C2(Cl)Cl)cc1C(=O)Nc1ccc(F)cc1` (relative stereo) [PF9, trans-5-(2,2-Dichloro-3-(3,5-dichlorophenyl)cyclopropanecarboxamido)-N-(4-fluorophenyl)-2-vinylbenzamide]: the pest or weed control at 50 µg/cm2 in test [1] (setting [6]) and in test [2] (setting [7]) was 50 to 100% throughout. Also, in test [3], the YFM rating entry is given as “A (80-100)”.
As to `N#Cc1cc(F)ccc1NC(=O)c1cccc(NC(=O)[C@H]2[C@H](c3ccc(Cl)c(Cl)c3)C2(Cl)Cl)c1` (relative stereo) [F268, trans-N-(2-Cyano-4-fluorophenyl)-3-(2,2-dichloro-3-(3,4-dichlorophenyl)cyclopropane-1-carboxamido)benzamide], the pest or weed control at 50 µg/cm2 in test [1] (setting [4]) and in test [2] (setting [5]) was 50 to 100% in each case. In test [3], the “YFM (Biological Results, rating)” value is reported as “A (80-100)”.
